We go through eleven compounds from patent US10738030B2, “Modulators of cystic fibrosis transmembrane conductance regulator” (Vertex Pharmaceuticals Incorporated, priority 2016, dated 2020).

In the assay the target is T1, F508del (Homo sapiens, UniProt P13569, DEL508-508).
T1 construct: expressed in transfected cells
Nature of the assay: Membrane potential optical assay (FRET voltage-sensor dyes), identification of correction compounds. It counts as cell-based. To be noted: NIH3T3 cells stably expressing F508del, procedures described above; for Emax: maximum efficacy, read-out: Max Efficacy; for EC50: modulation of CFTR activity. Here is the method: (§1) NIH3T3 mouse fibroblasts stably expressing F508del are used for optical measurements of membrane potential. The cells are maintained at 37° C. in 5% CO2 and 90% humidity in Dulbecco's modified Eagle's medium supplemented with 2 mM glutamine, 10% fetal bovine serum, 1×NEAA, β-ME, 1× pen/strep, and 25 mM HEPES in 175 cm^2 culture flasks. For all optical assays, the cells were seeded at 12,000 cells/well in 384-well matrigel-coated plates and cultured for 18-24 hrs at 37° C. for the potentiator assay. For the correction assays, the cells are cultured at 37° C. with and without compounds for 18-24 hours.
Membrane potential optical methods for assaying F508del modulation properties of compounds.
The optical membrane potential assay utilized voltage-sensitive FRET sensors described by Gonzalez and Tsien (See Gonzalez, J. E. and R. Y. Tsien (1995) “Voltage sensing by fluorescence resonance energy transfer in single cells” Biophys J 69(4): 1272-80, and Gonzalez, J. E. and R. Y. Tsien (1997) “Improved indicators of cell membrane potential that use fluorescence resonance energy transfer” Chem Biol 4(4): 269-77) in combination with instrumentation for measuring fluorescence changes such as the Voltage/Ion Probe Reader (VIPR) (See, Gonzalez, J. E., K. Oades, et al. (1999) “Cell-based assays and instrumentation for screening ion-channel targets” Drug Discov Today 4(9): 431-439).
These voltage sensitive assays are based on the change in fluorescence resonant energy transfer (FRET) between the membrane-soluble, voltage-sensitive dye, DiSBAC2(3), and a fluorescent phospholipid, CC2-DMPE, which is attached to the outer leaflet of the plasma membrane and acts as a FRET donor. Changes in membrane potential (Vm) cause the negatively charged DiSBAC2(3) to redistribute across the plasma membrane and the amount of energy transfer from CC2-DMPE changes accordingly. The changes in fluorescence emission were monitored using VIPR™ II, which is an integrated liquid handler and fluorescent detector designed to conduct cell-based screens in 96- or 384-well microtiter plates.
To identify small molecules that correct the trafficking defect associated with F508del; a single-addition HTS assay format was developed. The cells were incubated in serum-free medium for 16 hrs at 37° C. in the presence or absence (negative control) of test compound. As a positive control, cells plated in 384-well plates were incubated for 16 hrs at 27° C. to “temperature-correct” F508del. The cells were subsequently rinsed 3× with Krebs Ringers solution and loaded with the voltage-sensitive dyes. To activate F508del, 10 μM forskolin and the CFTR potentiator, genistein (20 μM), were added along with Cl^−-free medium to each well. The addition of Cl^−-free medium promoted Cl^− efflux in response to F508del activation and the resulting membrane depolarization was optically monitored using the FRET-based voltage-sensor dyes.
• Bath Solution #1: (in mM) NaCl 160, KCl 4.5, CaCl2 2, MgCl2 1, HEPES 10, pH 7.4 with NaOH. • Chloride-free bath solution: Chloride salts in Bath Solution #1 (above) are substituted with gluconate salts. • CC2-DMPE: Prepared as a 10 mM stock solution in DMSO and stored at −20° C. • DiSBAC2(3): Prepared as a 10 mM stock in DMSO and stored at −20° C. Cell Culture
as §1, with “seeded at 30,000/well in 384-well” for “seeded at 12,000 cells/well in 384-well”, “cultured for 2 hrs at” for “cultured for 18-24 hrs at”, “37° C. before culturing at 27° C. for 24 hrs for the” for “37° C. for the”, “cultured at 27° C. or 37° C.” for “cultured at 37° C.”, “compounds for 16-24 hours.” for “compounds for 18-24 hours.”

Some results are limits rather than exact numbers.

T1 sequence (P13569 with tags, fused parts or gaps DEL508-508): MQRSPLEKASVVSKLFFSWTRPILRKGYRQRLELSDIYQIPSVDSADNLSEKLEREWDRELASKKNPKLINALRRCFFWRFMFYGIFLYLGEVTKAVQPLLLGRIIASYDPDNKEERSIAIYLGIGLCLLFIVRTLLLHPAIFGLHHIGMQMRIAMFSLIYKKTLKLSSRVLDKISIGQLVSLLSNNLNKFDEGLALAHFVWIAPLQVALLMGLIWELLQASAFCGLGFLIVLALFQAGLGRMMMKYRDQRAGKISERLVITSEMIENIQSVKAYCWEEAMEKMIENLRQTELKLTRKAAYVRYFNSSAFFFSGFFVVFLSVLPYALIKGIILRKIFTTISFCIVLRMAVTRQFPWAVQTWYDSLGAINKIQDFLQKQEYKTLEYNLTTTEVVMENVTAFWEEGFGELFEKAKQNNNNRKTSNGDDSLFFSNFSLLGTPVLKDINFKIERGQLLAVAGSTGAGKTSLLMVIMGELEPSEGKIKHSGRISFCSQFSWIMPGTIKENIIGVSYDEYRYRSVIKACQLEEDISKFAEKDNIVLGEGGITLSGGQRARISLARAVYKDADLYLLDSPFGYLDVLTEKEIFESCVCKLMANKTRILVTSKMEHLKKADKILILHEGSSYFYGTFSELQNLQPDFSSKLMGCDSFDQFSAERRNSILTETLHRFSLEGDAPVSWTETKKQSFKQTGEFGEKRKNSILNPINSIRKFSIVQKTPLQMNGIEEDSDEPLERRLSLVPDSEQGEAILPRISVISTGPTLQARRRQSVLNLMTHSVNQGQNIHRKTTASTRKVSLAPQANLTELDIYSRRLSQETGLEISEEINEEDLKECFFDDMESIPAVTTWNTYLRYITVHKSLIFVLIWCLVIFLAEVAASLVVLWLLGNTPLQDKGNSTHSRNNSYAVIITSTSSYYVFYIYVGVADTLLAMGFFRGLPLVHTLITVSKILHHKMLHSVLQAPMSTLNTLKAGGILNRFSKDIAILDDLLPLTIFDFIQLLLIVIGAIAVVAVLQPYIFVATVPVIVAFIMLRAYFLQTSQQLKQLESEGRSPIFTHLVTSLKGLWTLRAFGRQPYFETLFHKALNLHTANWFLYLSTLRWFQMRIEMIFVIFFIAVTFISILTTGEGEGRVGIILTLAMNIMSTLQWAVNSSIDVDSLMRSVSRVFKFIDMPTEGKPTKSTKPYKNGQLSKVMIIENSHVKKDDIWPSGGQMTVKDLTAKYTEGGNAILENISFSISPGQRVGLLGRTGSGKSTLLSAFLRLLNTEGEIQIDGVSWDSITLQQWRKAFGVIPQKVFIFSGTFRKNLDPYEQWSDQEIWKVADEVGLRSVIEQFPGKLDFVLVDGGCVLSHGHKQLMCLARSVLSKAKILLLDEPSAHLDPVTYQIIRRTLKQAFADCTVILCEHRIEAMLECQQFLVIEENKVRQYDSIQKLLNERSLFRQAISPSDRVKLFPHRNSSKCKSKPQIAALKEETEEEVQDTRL

`CC(C)COc1cc(F)cc(-c2ccc(C(=O)NS(=O)(=O)c3cccc(N)n3)c(N(C(C)C)C(C)C)n2)c1` [Compound 41, N-[(6-amino-2-pyridyl)sulfonyl]-2-(diisopropylamino)-6-(3-fluoro-5-isobutoxy-phenyl)pyridine-3-carboxamide]: the Emax is more than 80% and the EC50 was less than 3 µM.

For the compound `C=CC(C)Oc1nc(-c2cc(F)cc(OCC(C)C)c2)ccc1C(=O)NS(=O)(=O)c1cccc(N)n1` (stereo not shown) [Compound 42, N-[(6-amino-2-pyridyl)sulfonyl]-6-(3-fluoro-5-isobutoxy-phenyl)-2-(1-methylallyloxy)pyridine-3-carboxamide], the Emax was more than 80% and the EC50 was less than 3 µM.

Regarding `C=CCOc1nc(-c2cc(F)cc(OCC(C)C)c2)ccc1C(=O)NS(=O)(=O)c1cccc(N)n1` [Compound 43, 2-allyloxy-N-[(6-amino-2-pyridyl)sulfonyl]-6-(3-fluoro-5-isobutoxy-phenyl)pyridine-3-carboxamide], the Emax fell in the range of 30 to 80% and the EC50 was less than 3 µM.

Regarding `CCC(C)(C)Oc1nc(-c2cc(F)cc(OCC(C)C)c2)ccc1C(=O)NS(=O)(=O)c1cccc(N)n1` [Compound 44, N-[(6-amino-2-pyridyl)sulfonyl]-2-(1,1-dimethylpropoxy)-6-(3-fluoro-5-isobutoxy-phenyl)pyridine-3-carboxamide], the Emax is more than 80% and the concentration giving a half-maximal response (EC50) was less than 3 µM.

Regarding `CC(C)Oc1nc(C(C)(C)C)ccc1C(=O)NS(=O)(=O)c1cccc(N)n1` [Compound 45, N-[(6-amino-2-pyridyl)sulfonyl]-6-tert-butyl-2-isopropoxy-pyridine-3-carboxamide], the Emax was 30 to 80% and the EC50 lay within 3 to 10 µM.

For the compound `CCN(CC)c1nc(-c2cc(F)cc(OCC(C)C)c2)ccc1C(=O)NS(=O)(=O)c1ccn[nH]1` [Compound 46, 2-(diethylamino)-6-(3-fluoro-5-isobutoxy-phenyl)-N-(1H-pyrazol-5-ylsulfonyl)pyridine-3-carboxamide], the Emax was in the range of 30 to 80% and the concentration for a half-maximal effect (EC50) was less than 3 µM.

Regarding `CCC(CC)Oc1nc(-c2cc(F)cc(OCC(C)C)c2)ccc1C(=O)NS(=O)(=O)c1cccc(N)n1` [Compound 47, N-[(6-amino-2-pyridyl)sulfonyl]-2-(1-ethylpropoxy)-6-(3-fluoro-5-isobutoxy-phenyl)pyridine-3-carboxamide], the Emax is more than 80% and the EC50 is less than 3 µM.

On to `CC(C)COc1cc(F)cc(-c2ccc(C(=O)NS(=O)(=O)c3cccc(N)n3)c(OCC(F)(F)F)n2)c1` [Compound 48, N-[(6-amino-2-pyridyl)sulfonyl]-6-(3-fluoro-5-isobutoxy-phenyl)-2-(2,2,2-trifluoroethoxy)pyridine-3-carboxamide], for which the Emax lay within 30 to 80% and the EC50 was in the range of 3 to 10 µM.

As for `C=C(C)COc1nc(-c2cc(F)cc(OCC(C)C)c2)ccc1C(=O)NS(=O)(=O)c1cccc(N)n1` [Compound 49, N-[(6-amino-2-pyridyl)sulfonyl]-6-(3-fluoro-5-isobutoxy-phenyl)-2-(2-methylallyloxy)pyridine-3-carboxamide], the Emax is more than 80% and the EC50 was less than 3 µM.

Regarding `CC(C)COc1cc(F)cc(-c2ccc(C(=O)NS(=O)(=O)c3ccn[nH]3)c(NCCC(C)(C)C)n2)c1` [Compound 50, 2-(3,3-dimethylbutylamino)-6-(3-fluoro-5-isobutoxy-phenyl)-N-(1H-pyrazol-5-ylsulfonyl)pyridine-3-carboxamide], the Emax was in the range of 30 to 80% and the concentration for a half-maximal effect (EC50) was in the range of 3 to 10 µM.

Regarding `COCC(C)(C)Oc1nc(-c2cc(F)cc(OCC(C)C)c2)ccc1C(=O)NS(=O)(=O)c1cccc(N)n1` [Compound 51, N-[(6-amino-2-pyridyl)sulfonyl]-6-(3-fluoro-5-isobutoxy-phenyl)-2-(2-methoxy-1,1-dimethyl-ethoxy)pyridine-3-carboxamide], the Emax is 30 to 80% and the EC50 was less than 3 µM.
